In ChEMBL document CHEMBL3870336, “The discovery of quinoline based single-ligand human H1 and H3 receptor antagonists” (Bioorg Med Chem Lett, 2016):
Activity calls are given as the source filed them. The rule behind the calls is not given here.

How the values were obtained:
[1] = molecular target: T1, Alpha-1A adrenergic receptor (Homo sapiens, UniProt P35348); test: Antagonist activity at adrenergic alpha1A receptor (unknown origin) expressed in Rat1 cells assessed as inhibition of phenylephrine-induced Ca2+ flux preincubated for 30 mins followed by phenylephrine addition by Fluo-4-AM-dye based FLIPR assay; type: cell-based
T1 sequence (P35348 whole entry): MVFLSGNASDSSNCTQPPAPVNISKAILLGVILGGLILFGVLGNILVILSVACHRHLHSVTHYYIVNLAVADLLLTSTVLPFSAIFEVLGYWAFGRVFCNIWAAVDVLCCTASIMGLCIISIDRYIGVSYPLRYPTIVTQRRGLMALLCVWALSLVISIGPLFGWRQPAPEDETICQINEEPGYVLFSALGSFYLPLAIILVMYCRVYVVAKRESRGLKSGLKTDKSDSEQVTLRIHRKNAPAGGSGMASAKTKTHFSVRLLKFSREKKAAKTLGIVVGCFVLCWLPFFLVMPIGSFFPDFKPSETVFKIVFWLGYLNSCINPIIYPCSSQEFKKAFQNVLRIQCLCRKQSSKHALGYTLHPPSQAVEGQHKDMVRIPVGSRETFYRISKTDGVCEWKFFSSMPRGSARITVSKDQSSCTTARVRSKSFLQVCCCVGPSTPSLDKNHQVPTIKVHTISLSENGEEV

[2] = Ratio of drug level in brain to plasma in rat; type: ADME; conditions: brain and plasma, read-out: BPR
Histamine H3 receptor = Histamine H3 receptor (Homo sapiens, UniProt Q9Y5N1); test: Antagonist activity at human Histamine H3 receptor expressed in CHO cell membranes assessed as inhibition of histamine-induced [35S]GTPgammaS binding after 2 to 6 hrs by scintillation proximity assay; type: functional
Sequence of Histamine H3 receptor (Q9Y5N1 whole entry): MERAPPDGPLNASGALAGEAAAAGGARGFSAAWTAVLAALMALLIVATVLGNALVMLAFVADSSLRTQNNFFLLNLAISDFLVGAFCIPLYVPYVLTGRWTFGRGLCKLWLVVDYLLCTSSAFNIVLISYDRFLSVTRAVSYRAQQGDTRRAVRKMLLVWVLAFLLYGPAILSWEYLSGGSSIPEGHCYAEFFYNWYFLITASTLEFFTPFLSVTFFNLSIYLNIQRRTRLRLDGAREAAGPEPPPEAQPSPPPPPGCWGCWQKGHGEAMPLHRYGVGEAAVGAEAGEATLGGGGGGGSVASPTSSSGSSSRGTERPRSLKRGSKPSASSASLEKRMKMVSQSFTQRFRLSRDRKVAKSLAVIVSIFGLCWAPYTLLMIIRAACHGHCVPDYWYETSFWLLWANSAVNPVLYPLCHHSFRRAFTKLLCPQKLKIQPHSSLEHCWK

Histamine H1 receptor [3] = molecular target: T2, Histamine H1 receptor (Homo sapiens, UniProt P35367); test: Antagonist activity at human Histamine H1 receptor expressed in CHO cells preincubated for 30 mins prior to histamine addition followed by subsequent washout and histamine challenge at 90 mins by Fluo-4 dye based FLIPR assay relative to azelastine; type: cell-based
T2 sequence (P35367 whole entry): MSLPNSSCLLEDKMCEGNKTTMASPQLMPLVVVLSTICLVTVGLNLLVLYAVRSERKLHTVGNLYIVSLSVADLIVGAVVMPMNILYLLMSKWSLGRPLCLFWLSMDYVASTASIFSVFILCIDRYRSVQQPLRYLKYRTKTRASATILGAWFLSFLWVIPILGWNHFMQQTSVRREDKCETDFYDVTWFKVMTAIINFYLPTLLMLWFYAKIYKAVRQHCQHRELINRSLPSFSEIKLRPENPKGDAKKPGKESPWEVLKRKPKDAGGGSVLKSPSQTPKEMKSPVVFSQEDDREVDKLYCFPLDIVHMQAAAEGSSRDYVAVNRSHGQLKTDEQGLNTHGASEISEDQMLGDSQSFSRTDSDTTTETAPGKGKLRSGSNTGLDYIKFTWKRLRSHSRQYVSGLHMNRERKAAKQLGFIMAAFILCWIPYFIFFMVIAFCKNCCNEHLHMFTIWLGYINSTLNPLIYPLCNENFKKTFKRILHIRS

[4] = molecular target: Voltage-gated inwardly rectifying potassium channel KCNH2 (Homo sapiens, UniProt Q12809); test: (§1) Displacement of [3H]-dofetilide from human ERG expressed in CHOK1 cell membranes incubated for 4 hrs in dark by luminescent assay; design: species or system CHO-K1
Sequence of Voltage-gated inwardly rectifying potassium channel KCNH2 (Q12809 whole entry): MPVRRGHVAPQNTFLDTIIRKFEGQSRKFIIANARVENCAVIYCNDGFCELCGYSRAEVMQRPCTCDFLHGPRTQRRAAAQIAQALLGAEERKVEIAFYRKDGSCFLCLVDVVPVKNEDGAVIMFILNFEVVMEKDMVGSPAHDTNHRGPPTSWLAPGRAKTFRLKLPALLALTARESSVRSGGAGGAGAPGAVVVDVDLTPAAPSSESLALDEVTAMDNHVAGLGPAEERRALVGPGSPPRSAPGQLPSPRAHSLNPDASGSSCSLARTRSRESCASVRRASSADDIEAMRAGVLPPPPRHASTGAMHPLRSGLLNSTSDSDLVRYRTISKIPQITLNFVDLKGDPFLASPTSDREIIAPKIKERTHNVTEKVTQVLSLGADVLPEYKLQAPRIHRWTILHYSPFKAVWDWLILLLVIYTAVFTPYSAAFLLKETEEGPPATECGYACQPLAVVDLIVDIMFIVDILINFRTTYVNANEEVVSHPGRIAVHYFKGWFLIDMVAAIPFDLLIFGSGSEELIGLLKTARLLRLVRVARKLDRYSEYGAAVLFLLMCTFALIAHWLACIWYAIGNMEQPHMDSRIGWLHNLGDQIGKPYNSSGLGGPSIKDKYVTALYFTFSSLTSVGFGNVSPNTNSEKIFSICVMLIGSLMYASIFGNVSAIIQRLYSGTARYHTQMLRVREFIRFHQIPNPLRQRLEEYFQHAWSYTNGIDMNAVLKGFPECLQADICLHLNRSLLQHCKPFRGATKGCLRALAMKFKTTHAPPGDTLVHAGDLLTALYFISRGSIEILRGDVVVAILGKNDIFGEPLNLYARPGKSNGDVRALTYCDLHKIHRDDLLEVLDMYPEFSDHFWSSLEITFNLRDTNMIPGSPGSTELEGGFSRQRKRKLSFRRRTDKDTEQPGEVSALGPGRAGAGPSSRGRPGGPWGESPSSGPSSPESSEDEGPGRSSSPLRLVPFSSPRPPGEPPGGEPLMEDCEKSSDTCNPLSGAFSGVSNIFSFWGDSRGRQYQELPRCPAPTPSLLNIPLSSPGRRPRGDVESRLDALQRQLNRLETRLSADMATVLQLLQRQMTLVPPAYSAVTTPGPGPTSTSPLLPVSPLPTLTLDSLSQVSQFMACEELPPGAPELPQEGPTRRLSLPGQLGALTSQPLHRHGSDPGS

[5] = Lipophilicity, logD of compound at pH 7.4; type: physicochemical; conditions: buffer
Histamine H1 receptor [6] = molecular target: T2, Histamine H1 receptor; test: Antagonist activity at human Histamine H1 receptor expressed in CHO cells assessed as inhibition of histamine-induced calcium flux at 100 nM preincubated for 30 mins followed by histamine addition by Fluo-4-AM dye based FLIPR assay; type: functional, cell-based; conditions: read-out: pA2 (converted)
[7] = molecular target: T3, Alpha-1B adrenergic receptor (Homo sapiens, UniProt P35368); test: Antagonist activity at adrenergic alpha1B receptor (unknown origin) expressed in Rat1 cells assessed as inhibition of phenylephrine-induced Ca2+ flux preincubated for 30 mins followed by phenylephrine addition by Fluo-4-AM-dye based FLIPR assay; type: cell-based
T3 sequence (P35368 whole entry): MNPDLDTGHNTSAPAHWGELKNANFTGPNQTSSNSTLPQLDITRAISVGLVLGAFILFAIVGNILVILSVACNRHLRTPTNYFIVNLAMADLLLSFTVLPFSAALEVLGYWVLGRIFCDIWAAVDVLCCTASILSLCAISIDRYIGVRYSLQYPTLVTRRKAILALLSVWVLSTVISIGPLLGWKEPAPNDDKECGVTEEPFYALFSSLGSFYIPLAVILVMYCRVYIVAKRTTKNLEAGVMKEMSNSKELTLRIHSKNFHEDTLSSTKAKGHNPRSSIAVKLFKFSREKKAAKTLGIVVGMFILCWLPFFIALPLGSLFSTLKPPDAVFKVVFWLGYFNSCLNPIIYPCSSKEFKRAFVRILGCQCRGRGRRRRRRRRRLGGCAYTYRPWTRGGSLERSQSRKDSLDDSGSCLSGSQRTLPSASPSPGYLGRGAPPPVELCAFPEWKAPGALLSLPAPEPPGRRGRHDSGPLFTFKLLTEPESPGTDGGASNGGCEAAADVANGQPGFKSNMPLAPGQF

Histamine H1 receptor [8] = molecular target: T2, Histamine H1 receptor; test: Antagonist activity at human Histamine H1 receptor expressed in CHO cells preincubated for 30 mins prior to histamine addition followed by subsequent washout and histamine challenge at 270 mins by Fluo-4 dye based FLIPR assay relative to azelastine; type: cell-based
Histamine H1 receptor [9] = molecular target: T2, Histamine H1 receptor; test: Antagonist activity at human Histamine H1 receptor expressed in CHO cells assessed as inhibition of histamine-induced calcium flux preincubated for 30 mins followed by histamine addition by Fluo-4-AM dye based FLIPR assay; type: functional, cell-based
hERG (KCNH2) = hERG (KCNH2) (Homo sapiens, UniProt Q12809); test: as §1; design: species or system CHO-K1; conditions: human, CHO-K1 cell membranes expressing human ERG, probe [3H]-dofetilide
Sequence of hERG (KCNH2) (Q12809 whole entry): as the sequence (Q12809 whole entry) above

Ki [1] [nM] | Kp [2] | Ki (Histamine H3 receptor) [nM] | inhibition (Histamine H1 receptor [3]) | logD [5] | Kb (Histamine H1 receptor [6]) [nM] | Ki [7] [nM] | inhibition (Histamine H1 receptor [8]) | Ki (Histamine H1 receptor [9]) [nM] | SMILES | IC50 [4] [nM] | IC50 at 4 h (hERG (KCNH2)) [nM]
63.1 | – | 1.58 | – | 0.34 | – | 79.4 | – | 200 | O=C(O)/C=C/c1ccc2cccc(N3CCN(CCc4ccc(OCCCN5CCCCCC5)cc4)CC3)c2n1 | > 63100 | –
> 2000 | – | 1.58 | – | -0.24 | – | > 2000 | – | > 2510 | O=C(O)c1ccnc2c(N3CCN(CCc4ccc(OCCCN5CCCCCC5)cc4)CC3)cccc12 | > 63100 | –
– | – | – | Active | – | – | – | Active | – | O=c1c2ccccc2c(Cc2ccc(Cl)cc2)nn1C[C@H]1CCCN1CCCCc1ccc(OCCCN2CCCCCC2)cc1 [GSK-1004723] | – | 50.1
251 | – | 2 | – | 1 | 2.51 | > 2000 | – | 15.8 | CCc1cc(N2CCN(CCc3ccc(OCCCN4CCCCCC4)cc3)CC2)c2nc(CCC(=O)O)ccc2c1 | – | –
> 2000 | – | 1.26 | – | -0.63 | – | > 2000 | – | 39.8 | O=C(O)CCc1cnc2c(N3CCN(CCc4ccc(OCCCN5CCCCCC5)cc4)CC3)cccc2c1 | 31600 | –

Continued, compound first:

SMILES | Ki [1] [nM] | Kp [2] | Ki (Histamine H3 receptor) [nM] | inhibition (Histamine H1 receptor [3]) | logD [5] | Kb (Histamine H1 receptor [6]) [nM] | Ki [7] [nM] | inhibition (Histamine H1 receptor [8]) | Ki (Histamine H1 receptor [9]) [nM] | IC50 [4] [nM] | IC50 at 4 h (hERG (KCNH2)) [nM]
c1cnc2c(N3CCN(CCc4ccc(OCCCN5CCCCCC5)cc4)CC3)cccc2c1 | 7.94 | > 13 | 0.501 | Active | 1.9 | 10 | 15.8 | Active | 20 | 7940 | –
O=C(O)c1ccc2cccnc2c1N1CCN(CCc2ccc(OCCCN3CCCCCC3)cc2)CC1 | > 2000 | – | 1.26 | – | -0.12 | – | > 2000 | – | > 2510 | – | –
c1cnc2c(N3CCN(CCCc4ccc(OCCCN5CCCCCC5)cc4)CC3)cccc2c1 | 31.6 | – | 0.398 | – | 1.8 | – | 100 | – | 79.4 | 1000 | –
c1cnc2c(N3CCN(CCCCc4ccc(OCCCN5CCCCCC5)cc4)CC3)cccc2c1 | 79.4 | – | 0.631 | Active | 2.2 | 5.01 | 50.1 | Active | 15.8 | 1580 | –
O=C(O)CCc1ccc2cc(Cc3ccccc3)cc(N3CCN(CCc4ccc(OCCCN5CCCCCC5)cc4)CC3)c2n1 | 50.1 | 0.15 | 0.316 | Active | 1.9 | 6.31 | 251 | – | 25.1 | 6310 | –
O=C(O)CCc1ccc2cccc(N3CCN(CCc4ccc(OCCCN5CCCCCC5)cc4)CC3)c2n1 | > 2000 | – | 1.58 | – | 0.18 | – | 200 | – | 12.6 | 15800 | –
O=C(O)c1cc(N2CCN(CCc3ccc(OCCCN4CCCCCC4)cc3)CC2)c2ncccc2c1 | > 2000 | – | 2 | – | -1 | – | > 2000 | – | > 2510 | 39800 | –
CCCCc1cc(N2CCN(CCc3ccc(OCCCN4CCCCCC4)cc3)CC2)c2nc(CCC(=O)O)ccc2c1 | 316 | – | 0.794 | – | 2.3 | 1.58 | 398 | – | 12.6 | 2510 | –
O=C(O)c1ccc2cccc(N3CCN(CCc4ccc(OCCCN5CCCCCC5)cc4)CC3)c2n1 | > 2000 | – | 0.501 | – | -0.37 | – | > 2000 | – | 251 | – | –
O=C(O)c1cnc2c(N3CCN(CCc4ccc(OCCCN5CCCCCC5)cc4)CC3)cccc2c1 | > 2000 | – | 1.58 | – | -0.78 | – | > 2000 | – | 398 | 20000 | –
